From patent publication US12436145B2, “Cryptic antibiotics and methods for detecting bioactive cryptic metabolites” (THE TRUSTEES OF PRINCETON UNIVERSITY, priority 2019, dated 2025) come the findings set out here.

The subject of assay [1] is A. keratiniphila. In words: Elicitor screening, supernatants in liquid bioassay against E. coli. Format: cell-based, Amycolatopsis kerathiniphila. Conditions: A. keratiniphila grown with ~33 μM elicitor; supernatant on E. coli, OD600 nm. Here is the method: (§1) For the high-throughput-elicitor screening portion of this example, the procedure is described for S. hiroshimensis. An identical procedure was used for S. lavendulae and A. keratiniphila. […] The culture was incubated at 30° C./250 rpm for two days. Then, the mycelia cell mass was pelleted by centrifugation, the supernatant discarded, and a stock solution of 100 mg/mL cell mass was generated in R4 medium. The stock solution was used to prepare the appropriate volume (see below) of R4 medium containing 0.5 mg/mL mycelia cell mass in a 250 mL Erlenmeyer flask. The suspension was homogenized by stirring at room temperature. Subsequently, a MultiFlow Dispenser (from Biotek, Inc.) was used to dispense 150 μL of the suspension into each well of six sterile round bottom 96 well plates (from Corning, Inc.). Candidate elicitors were added from a commercially-available 502-member Natural Products Library (from Enzo Life Sciences, Inc.) using a CYBI-WELL™ automated liquid transfer robot (from CyBio AG). A volume of 0.5 μL was transferred from the compound library into each well to give a final concentration of ^˜33 μM. Then each plate was covered with a BREATHE-EASY® sealing membrane (from MilliporeSigma) and cultured at 30° C./200 rpm for 5 days. Humidity was maintained in the shaker/incubator by incubating several flasks containing sterile water.
Assays against E. coli were also carried out. In this case, broader elicitation screens were conducted using a ˜500-member natural product library as the source of potential inducers. To increase the throughput of the assays, liquid bioassays were used. […]
From the elicitor plates, after culturing for 5 days, the plates were spun down in a 96-well plate centrifuge and the supernatants (10 μL) transferred to fresh 96-well assay plates, each well containing 100 μL LB-E. coli culture, with the E. coli cells inoculated to an initial OD600 nm OD600 nm of 0.002. The assay plates were cultured at 37° C./200 rpm overnight (10-12 h) and OD600 nm was then determined using a plate reader. […]

Assay [2] relates to S. cebuensis. The assay can be described thus: Elicitor screening, supernatants on E. coli cultures (OD600 nm). Conditions: S. cebuensis grown with elicitor, supernatant on E. coli. Format: cell-based, Saccharopolyspora cebuensis. How it is done: Wild-type S. cebuensis cultures were transferred to 96 well-plates and each well was robotically supplemented with a compound from a commercial small molecule library as a source of elicitors. […] To grow the cells, the plates were incubated for a defined period. […] The OD600 nm from each well was normalized and the % E. coli growth thus obtained was plotted as a function of each elicitor, allowing one to identify at least one elicitor corresponding to a second activity greater than the first activity.

In a further assay the test system is P. aeruginosa ATCC 27853. The assay can be described thus: Minimal inhibitory concentration (CLSI methods). Format: cell-based. How it is done: (§2) Antibacterial assays with taylorflavin B (8) were carried out by Micromyx, LLC in accordance with methods from the Clinical and Laboratory Standards Institute. Minimal inhibitory concentrations were determined with the following strains: E. coli ATCC 25922, A. baumannii ATCC 19606, V. cholerae BAA-2163, N. gonorrhoeae ATCC 49226, P. aeruginosa ATCC 27853, K. pneumoniae MMX 214. S. aureus ATCC 29213, S. aureus MMX 2011, S. pneumoniae ATCC 49619, S. pyogenes MMX 6253, S. agalactiae MMX 6189, E. faecalis ATCC 29212, E. faecalis MMX 486, B. subtilis ATCC 6633, C. difficile ATCC 700057, B. fragilis ATCC 25285. Assays with taylorflavin A (7) were carried in-house according to the same protocols.

Another assay has as its system E. coli ATCC 25922. The assay can be described thus: Minimal inhibitory concentration (CLSI methods). Format: cell-based. Here is the method: as §2
Another assay relates to B. subtilis ATCC 6633. In words: Minimal inhibitory concentration (CLSI methods). Format: cell-based. How it is done:
as §2

A further assay deals with S. aureus ATCC 29213. The assay can be described thus: Minimal inhibitory concentration (CLSI methods). Format: cell-based. How it is done: as §2
A further assay relates to E. coli. The assay can be described thus: In-house bioactivity assays of induced peaks and purified taylorflavins. Format: cell-based.
For assay [3], the system named is S. hiroshimensis. The assay can be described thus: Elicitor screening, supernatants in liquid bioassay against E. coli. Format: cell-based, Streptomyces hiroshimensis. Conditions: S. hiroshimensis grown with ~33 μM elicitor; supernatant on E. coli, OD600 nm. Here is the method: as §1, with “A volume of 0.5 μL was transferred from the compound library into each well to give a final concentration of ^˜33 μM.” left out
(§3) Assays against E. coli were also carried out. In this case, broader elicitation screens were conducted using a ˜500-member natural product library as the source of potential inducers. To increase the throughput of the assays, liquid bioassays were used. Rather than manually spotting each disc, the supernatants were screened by robotically transferring the supernatant from the elicitor plate to 96-well plates inoculated with the E. coli test strain.
(§4) From the elicitor plates, after culturing for 5 days, the plates were spun down in a 96-well plate centrifuge and the supernatants (10 μL) transferred to fresh 96-well assay plates, each well containing 100 μL LB-E. coli culture, with the E. coli cells inoculated to an initial OD600 nm OD600 nm of 0.002. The assay plates were cultured at 37° C./200 rpm overnight (10-12 h) and OD600 nm was then determined using a plate reader. To generate the plot in FIG. 3, the OD600 nm from each well was divided by the average OD600 nm from the entire plate and multiplied by 100 to give the percent growth. This normalization was carried out to account for plate-to-plate variation in growth rates.

The test system of the next assay is S. lavendulae. The description is as above. Format: cell-based, Streptomyces lavendulae. Conditions: S. lavendulae grown with ~33 μM elicitor; supernatant on E. coli, OD600 nm. Here is the method: as §1, §3
as §4, with “rates. The results for the entire library are shown for S. lavendulae in FIG. 3. The two wells with the highest stimulation (301, 302) and highest inhibition (303, 304) are indicated.” for “rates.”

In assay [4] the test system is A. keratiniphila. The assay can be described thus: Elicitor screening, supernatants in disc diffusion assays against B. subtilis. Format: cell-based, Amycolatopsis kerathiniphila. Conditions: A. keratiniphila grown with ~33 μM elicitor, 5 days; supernatant on B. subtilis disc diffusion. How it is done: as §1, with “Then each plate was covered with a BREATHE-EASY® sealing membrane (from MilliporeSigma) and cultured at 30° C./200 rpm for 5 days. Humidity was maintained in the shaker/incubator by incubating several flasks containing sterile water.” left out
The resulting agar plates were assessed visually, and subsequently examined visually for halos. To generate FIG. 2, the halo diameter, if any, was measured and categorized as none (n), weak (w), medium (m), or strong (s) inhibition. […]

For assay [5], the system named is S. cebuensis. The assay can be described thus: Validation of elicitors: agar disc diffusion assays. Format: cell-based, Saccharopolyspora cebuensis. Conditions: supernatants of S. cebuensis grown with elicitor. On the technique in general: Agar diffusion results depend on both activity and mobility in agar.
In assay [6] the test system is S. hiroshimensis. The assay can be described thus: Elicitor screening, supernatants in disc diffusion assays against B. subtilis. Format: cell-based, Streptomyces hiroshimensis. The note with it: S. hiroshimensis grown with ~33 μM elicitor, 5 days; supernatant on B. subtilis disc diffusion. Here is the method: as §1, with “Candidate elicitors were added from a commercially-available 502-member Natural Products Library (from Enzo Life Sciences, Inc.) using a CYBI-WELL™ automated liquid transfer robot (from CyBio AG). A volume of 0.5 μL was transferred from the compound library into each well to give a final concentration of ^˜33 μM.” left out

Each structure is given as a SMILES string. Values after ≈ are worked out from the molar mass of the structure shown. Read-outs that look alike come from different tables or passages of the source. Peptide text beside a SMILES is read from it.

Consider `Cc1cn([C@H]2C[C@H](N=[N+]=[N-])[C@@H](CO)O2)c(=O)[nH]c1=O` [AZT], for which the “effect of elicitor-induced metabolome on E. coli growth” value (from here on “effect of elicitor-induced metabolome”) in the assay with A. keratiniphila [1] was “produce growth-inhibitory compounds”.
On to `CCCCC(CC)COC(=O)CC(C(=O)OCC(CC)CCCC)S(=O)(=O)[O-].[Na+]` (stereo not shown) [Na-docusate], for which the “effect of elicitor-induced metabolome” value in the assay on S. cebuensis [2] is listed as “stimulated E. coli growth best”.
Regarding `Cn1nc2[nH]c(=O)n(C)c(=O)c2nc1=O` [Taylorflavin A], the “minimal inhibitory concentration (MIC)” value in the assay on P. aeruginosa ATCC 27853 is 25 µg/mL (≈ 120 µM); in the assay with E. coli ATCC 25922, 37.5 µg/mL (≈ 179 µM); in the assay on B. subtilis ATCC 6633 it was over 64 µg/mL; in the assay with B. subtilis ATCC 6633 (listed as taylorflavin A) it was “Significantly weaker activity”; in the assay with S. aureus ATCC 29213, over 64 µg/mL; in the assay on S. aureus ATCC 29213 (listed as taylorflavin A), “Significantly weaker activity”. The “antibiotic activity / inhibition of E. coli growth” value in the assay on E. coli is given as “antibiotic activity”.
On to `CC(=O)OC1CN2CCC1CC2` (stereo not shown) [aceclidine], for which the “effect of elicitor-induced metabolome” value in the assay with S. hiroshimensis [3] is reported as “most enhanced E. coli growth”.
With `NC(=O)NC1NC(=O)NC1=O` (stereo not shown) [allantoin], the “effect of elicitor-induced metabolome” value in the assay on S. lavendulae was “inhibited it”.
With `COC(=O)[C@H](Cc1ccccc1)NC(=O)[C@@H](N)CC(=O)O` [aspartame] (H-Asp-Phe-OMe), the “effect of elicitor-induced metabolome” value in the assay with A. keratiniphila [1] is reported as “enhanced E. coli growth”.
As to `CC(=O)O[C@H]1C(=O)[C@@]2(C)[C@H]([C@H](OC(=O)c3ccccc3)[C@]3(O)C[C@H](O)C(C)=C1C3(C)C)[C@]1(OC(C)=O)CO[C@@H]1C[C@@H]2O` [baccatin III], the “induction of zones of inhibition against B. subtilis” value with A. keratiniphila [4] is “gave rise to zones of inhibition”.
Regarding `C[C@H](CCC(=O)O)[C@H]1CC[C@H]2[C@@H]3[C@H](O)C[C@@H]4C[C@H](O)CC[C@]4(C)[C@H]3CC[C@]12C` [chenodiol], the “effect of elicitor-induced metabolome” value in the assay with S. lavendulae is “support E. coli growth best”.
In the case of `CN(C)CC[C@@H](c1ccc(Cl)cc1)c1ccccn1` [dexchlorpheniramine], the “effect of elicitor-induced metabolome” value in the assay on S. hiroshimensis [3] is reported as “most enhanced E. coli growth”.
Take `NS(=O)(=O)c1cc(C(=O)O)c(NCc2ccco2)cc1Cl` [furosemide]: the “halo of growth-inhibition in agar disc diffusion” value with S. cebuensis [5] is on record as “halo of growth-inhibition”.
With `N[C@H]1C(O)O[C@H](CO)[C@@H](O)[C@@H]1O` (stereo partly shown) [glucosamine], the “effect of elicitor-induced metabolome” value in the assay with S. hiroshimensis [3] is “most enhanced E. coli growth”.
Regarding `O[C@H]1[C@H](O)[C@@H](O)[C@H](O)[C@@H](O)[C@H]1O` [inositol], in the assay on S. lavendulae, the “effect of elicitor-induced metabolome” value is recorded as “inhibited it”.
With `CC(C)NCC(O)c1ccc(O)c(O)c1` (stereo not shown) [isoproterenol], the “effect of elicitor-induced metabolome” value in the assay on S. lavendulae is on record as “support E. coli growth best”.
Regarding `COc1cc2oc(=O)ccc2cc1O` [isoscopoletin], the “induction of zones of inhibition against B. subtilis” value with A. keratiniphila [4] is “gave rise to zones of inhibition”.
For the molecule `CC12CC3CC(C)(C1)CC(N)(C3)C2` [memantine], the “effect of elicitor-induced metabolome” value in the assay with S. hiroshimensis [3] is “inhibited E. coli growth best”.
As to `Cn1cc[nH]c1=S` [methimazole], the “effect of elicitor-induced metabolome” value with S. cebuensis [2] is reported as “stimulated E. coli growth best”.
On to `CC[C@@H](CO)NC(=O)[C@@H]1C=C2c3cccc4[nH]cc(c34)C[C@H]2N(C)C1` [methylergonovine], for which the “effect of elicitor-induced metabolome” value with S. hiroshimensis [3] was “inhibited E. coli growth best”.
Take `NC(=O)CN1CCCC1=O` [piracetam]: the “effect of elicitor-induced metabolome” value in the assay with S. cebuensis [2] is “stimulated E. coli growth best”.
As to `COc1cc(NC(C)CCCN)c2ncccc2c1` (stereo not shown) [primaquine], the “induction of anti-B. subtilis metabolite(s)” value in the assay on S. hiroshimensis [6] is given as “appeared to elicit anti-B. subtilis metabolite(s)”.
Regarding `CCN(CC)CCOC(=O)c1ccc(N)cc1` [procaine], in the assay with S. cebuensis [2], the “effect of elicitor-induced metabolome” value is listed as “inhibited it”. Moreover, in the assay on S. hiroshimensis [6], the “induction of anti-B. subtilis metabolite(s)” value is “appeared to elicit anti-B. subtilis metabolite(s)”.
`CCN1CCCC1CNC(=O)c1cc(S(N)(=O)=O)ccc1OC` (stereo not shown) [sulpiride]: the “effect of elicitor-induced metabolome” value in the assay with A. keratiniphila [1] is reported as “produce growth-inhibitory compounds”.
